In patent publication US20030092640A1, “Azalide antibiotic compositions” (Pfizer Inc., priority 2001, published 2003):
≈ marks a conversion by molar mass, not a printed value. Where “and” joins values, the source holds several entries; their conditions need not be identical. Identical values can stand only once.

Legend:
E. coli = test: Assay I liquid dilution MIC, E. coli; assay type: cell-based; details: Escherichia coli, 18 h, read-out: MIC against E. coli
[1] = test system: Pasteurella multocida (strain 59A067); test: Assay I liquid dilution MIC, P. multocida; assay type: cell-based; details: 100% inhibition of growth, 37° C., 18 hours, BHI broth, read-out: MIC against P. multocida
Method: This assay employs conventional methodology and interpretation criteria and is designed to test for activity against Pasteurella multocida, using the liquid dilution method in microliter format. A single colony of P. multocida (strain 59A067) is inoculated into 5 mL of brain heart infusion (BHI) broth. The azalide formulation is prepared by solubilizing 1 mg of the azalide composition in 125 μL of dimethylsulfoxide (DMSO). Dilutions of the azalide compositions are prepared using uninoculated BHI broth. The concentrations of the azalide compounds used range from 200 μg/mL to 0.098 μg/mL by two-fold serial dilutions. The P. multocida inoculated BHI is diluted with uninoculated BHI broth to make a 10^4 cell suspension per 200 μL. The BHI cell suspensions are mixed with respective serial dilutions of the azalide compositions, and incubated at 37° C. for 18 hours.
Accordingly, as expected, the azalide compounds used in this invention are active against a variety of organisms.

S. aureus = test: Assay I liquid dilution MIC, S. aureus; assay type: cell-based; details: Staphylococcus aureus, 18 h, read-out: MIC against S. aureus
[2] = Potency retention (HPLC stability) of azalide in aqueous propylene glycol/citric acid compositions; assay type: physicochemical; details: 0.1 M citric acid
Method: As used in this application, the term “potency” means the amount of an azalide compound present in a “test” sample subjected to a particular set of experimental conditions during a particular time interval, relative to the amount of the azalide compound present in an otherwise identical “control” sample stored at 5° C. for the same time interval. Upon completion of the experiment for a given sample, the test and control samples are typically subjected to appropriate processing steps to allow accurate determination of the amount of the azalide compound. Relative amounts of azalide compound in the test and control samples may be determined by any number of means which are well-known in the art, such as high performance liquid chromatography (“HPLC”), nuclear magnetic resonance spectroscopy (“NMR”), gas chromatography (“GC”), mass spectrometry (“MS”), liquid chromatography/mass spectrometry (“LC/MS”), GC/MS, and thin layer chromatography (“TLC”).
Preferred methods for determining that a stable azalide composition has been obtained include gel chromatography, thin-layer chromatography, and HPLC. More preferably, HPLC is used. To monitor the compositions of the invention for potency, after dilution to final volume and sterilization by filtration, the compositions were subdivided into 3.5 mL glass vials which were sealed with rubber stoppers and an aluminum crimp. For the tests reported below, approximately 10 vials containing 2.5 mL each were prepared.
Approximately 30 mL of each composition listed in Table 1 below was prepared as follows:
1) Sufficient citric acid was added to Water for Injection to produce a solution having a final concentration of acid of 0.1 M;
2) The compound of formula 1a or 1b was added in an amount to produce a final azalide concentration of 100 mg/mL (0.12 mmol/mL of the composition), and the mixture was stirred until the azalide was dissolved;
3) Propylene glycol was added to produce a concentration in the final mixture of from about 25% to about 75% by weight relative to the total volume;
4) The pH was adjusted by addition of 10% aqueous HCl or 10 M aqueous NaOH as necessary;
5) Water for Injection was added to bring the volume to 30 mL;
6) Each sample was subdivided by filtration through a 0.22 micron Millex GV filter into 3.5 mL glass vials which were each sealed with a rubber stopper and an overseal consisting of an aluminum crimp. Approximately 10 vials containing 2.5 mL each were prepared for each sample.
To monitor the stability of the azalide compositions, vials were assayed by HPLC after exposure to elevated temperatures for a period of time. Aliquots were removed from vials and diluted with a mixture of 15% 10 mM potassium phosphate buffer, pH 6.5, 85% 1:1 (v/v) acetonitrile:methanol to a concentration of approximately 1.0 mg of the compound of formula 1 per mL total sample volume. Diluted samples were subjected to chromatography in a Waters Alliance 2690 HPLC system having a 2487 UV detector. The column was a Waters Symmetry C-18, 5 micron (250×4.6 mm), the mobile phase was the same as the phosphate/acetonitrile/methanol diluent above and the flow rate was 1 mL/minute. Peaks were detected by monitoring ultraviolet absorption at 210 nm. Relative amounts of azalide compound in the experimental samples and the controls were determined by taking the ratio of their relative chromatogram-peak areas. Although HPLC was used in this experiment, other known methods, including NMR, GC, MS, LC/MS, GC/MS, and TLC can be used to evaluate the potency of the compound of formula 1.
The results are reported in Table 1 below as a percentage of the compound of formula 1 remaining after exposure to various temperature and duration conditions, relative to the amount of the compound present in an otherwise identical sample stored at 5° C. for the same time interval.

[3] = preparation 1: propylene glycol 50 w/v %, pH 4.5, 100 mg/mL azalide
[4] = preparation 2: propylene glycol 25 w/v %, pH 5.0, 100 mg/mL azalide
[5] = preparation 3: propylene glycol 75 w/v %, pH 5.0, 100 mg/mL azalide
[6] = preparation 7: propylene glycol 25 w/v %, pH 6.0, 100 mg/mL azalide
[7] = preparation 8: propylene glycol 75 w/v %, pH 6.0, 100 mg/mL azalide
[8] = preparation 9: propylene glycol 50 w/v %, pH 6.5, 100 mg/mL azalide
[9] = preparations 4, 5, 6: propylene glycol 50 w/v %, pH 5.5, 100 mg/mL azalide

CC[C@H]1OC(=O)[C@H](C)[C@@H](O[C@H]2C[C@@](C)(OC)[C@](O)(CNC(C)C)[C@H](C)O2)[C@H](C)[C@@H](O[C@@H]2O[C@H](C)C[C@H](N(C)C)[C@H]2O)[C@](C)(O)C[C@@H](C)CN(C)[C@H](C)[C@@H](O)[C@]1(C)O [Compound 1a, 1-Oxa-6-azacyclopentadecan-15-one, 13-[[2,6-dideoxy-3-C-methyl-3-O-methyl-4-C-[[(1-methylethyl)amino]methyl]-α-L-ribo-hexopyranosyl]oxy]-2-ethyl-3,4,10-trihydroxy-3,5,6,8,10,12,14-heptamethyl-11-[[3,4,6-trideoxy-3-(dimethylamino)-β-D-xylo-hexopyranosyl]oxy]-, (2R,3S,4R,5R,8R,10R,11R,12S,13S,14R)-]
MIC (E. coli): 0.39 µg/mL (≈ 0.476 µM) | MIC [1]: 0.05 µg/mL (≈ 0.061 µM) | MIC (S. aureus): 0.2 µg/mL (≈ 0.244 µM) | Potency (% of 5° C.) 6 weeks, 50° C. [2, 3]: 91.9% | Potency (% of 5° C.) 12 weeks, 50° C. [2, 3]: 91.3% | Potency (% of 5° C.) 6 weeks, 50° C. [2, 4]: 93.6% | Potency (% of 5° C.) 12 weeks, 50° C. [2, 4]: 87.9% | Potency (% of 5° C.) 6 weeks, 50° C. [2, 5]: 96.0% | Potency (% of 5° C.) 12 weeks, 50° C. [2, 5]: 102.6% | Potency (% of 5° C.) 6 weeks, 50° C. [2, 6]: 90.6% | Potency (% of 5° C.) 12 weeks, 50° C. [2, 6]: 85.7% | Potency (% of 5° C.) 6 weeks, 50° C. [2, 7]: 89.5% | Potency (% of 5° C.) 12 weeks, 50° C. [2, 7]: 89.8% | Potency (% of 5° C.) 6 weeks, 50° C. [2, 8]: 84.1% | Potency (% of 5° C.) 12 weeks, 50° C. [2, 8]: 75.9% | Potency (% of 5° C.) 6 weeks, 50° C. [2, 9]: 96.3% and 95.6% and 93.9% | Potency (% of 5° C.) 12 weeks, 50° C. [2, 9]: 92.9% and 91.4% and 90.4%

CC[C@H]1OC(=O)[C@H](C)[C@@H](O[C@H]2C[C@@](C)(OC)[C@](O)(CN(C)CC)[C@H](C)O2)[C@H](C)[C@@H](O[C@@H]2O[C@H](C)C[C@H](N(C)C)[C@H]2O)[C@](C)(O)C[C@@H](C)CN(C)[C@H](C)[C@@H](O)[C@]1(C)O [Compound 1b, 1-Oxa-6-azacyclopentadecan-15-one, 13-[[2,6-dideoxy-4-C-[(ethylmethylamino)methyl]-3-C-methyl-3-O-methyl-α-L-ribo-hexopyranosyl]oxy]-2-ethyl-3,4,10-trihydroxy-3,5,6,8,10,12,14-heptamethyl-11-[[3,4,6-trideoxy-3-(dimethylamino)-β-D-xylo-hexopyranosyl]oxy]-, (2R,3S,4R,5R,8R,10R,11R,12S,13S,14R)-]
MIC (E. coli): 0.39 µg/mL (≈ 0.476 µM) | MIC [1]: 0.05 µg/mL (≈ 0.061 µM) | MIC (S. aureus): 0.39 µg/mL (≈ 0.476 µM) | Potency (% of 5° C.) 6 weeks, 50° C. [2, 3]: 96.1% | Potency (% of 5° C.) 12 weeks, 50° C. [2, 3]: 92.1% | Potency (% of 5° C.) 6 weeks, 50° C. [2, 4]: 96.5% | Potency (% of 5° C.) 12 weeks, 50° C. [2, 4]: 92.4% | Potency (% of 5° C.) 6 weeks, 50° C. [2, 5]: 98.8% | Potency (% of 5° C.) 12 weeks, 50° C. [2, 5]: 96.1% | Potency (% of 5° C.) 6 weeks, 50° C. [2, 6]: 90.0% | Potency (% of 5° C.) 12 weeks, 50° C. [2, 6]: 81.5% | Potency (% of 5° C.) 6 weeks, 50° C. [2, 7]: 93.8% | Potency (% of 5° C.) 12 weeks, 50° C. [2, 7]: 94.0% | Potency (% of 5° C.) 6 weeks, 50° C. [2, 8]: 86.5% | Potency (% of 5° C.) 12 weeks, 50° C. [2, 8]: 76.5% | Potency (% of 5° C.) 6 weeks, 50° C. [2, 9]: 94.9% and 93.0% and 93.3% | Potency (% of 5° C.) 12 weeks, 50° C. [2, 9]: 91.8% and 96.1% and 95.3%
